The subject of data set [1] is E1α-phospho/E1α, E2, BCATm, BCATc. Kind of data set: Western blotting of BCKD complex and BCAT isozymes in lymphoblast cells. The format is cell-based, human.
Data set [2] concerns phosphorylated E1-α subunit of BCKDC. Kind of data set: Western blot of liver extract for phosphorylated E1 subunit of BCKDC. The format is in vivo, C57B6 mice. The note with it: 50 mg/kg/day oral gavage in 3 administrations, 3 days, N=5 per group, p<0.05. On the procedure:
FIG. 5 is a Western blot analysis of liver extract using an antibody against the phosphorylated form of the E1 subunit of BCKDC from C57B6 mice (N=5 mice per group) treated with phenylbutyrate or placebo. To investigate the effect and mechanism of phenylbutyrate on the BCKD, mice (n=5) were treated with saline or 50 mg/kg/day of phenylbutyrate divided into three administrations for three consecutive days and after three days of treatment they were sacrificed for analyses. Proteins were extracted from mouse livers and a western blot performed using an anti-phosphoserine BCKDC antibody, the anti-BCKDC-E1 antibody, and the anti-BCKDC-E2 antibody. Each lane corresponds to the liver extract from an independent mouse (from #1 to #3).
A post-translational mechanism of regulation of the activity of BCKDC by covalent modification by phosphorylation. In order to investigate the effect and mechanism of phenylbutyrate-mediated increased activity of BCKDC, Buphenyl® or saline were given orally to C57B6 mice (N=5 mice per group) by gavage at the dose of 50 mg/kg/day divided into 3 administrations for 3 consecutive days. After three days of treatment the animals were sacrificed to harvest the liver samples. Proteins were extracted from mouse livers by homogenizing the tissue in a buffer containing 5% SDS and 0.0625 M TrisHCl. […]
Background: Immunoblotting shows a protein as a band on a membrane.

The conditions of data set [3]: cited from earlier work.
The target in the next data set is T1, BCKDC (Homo sapiens, UniProt P12694+P21953).
T1 sequence (P12694 46-445): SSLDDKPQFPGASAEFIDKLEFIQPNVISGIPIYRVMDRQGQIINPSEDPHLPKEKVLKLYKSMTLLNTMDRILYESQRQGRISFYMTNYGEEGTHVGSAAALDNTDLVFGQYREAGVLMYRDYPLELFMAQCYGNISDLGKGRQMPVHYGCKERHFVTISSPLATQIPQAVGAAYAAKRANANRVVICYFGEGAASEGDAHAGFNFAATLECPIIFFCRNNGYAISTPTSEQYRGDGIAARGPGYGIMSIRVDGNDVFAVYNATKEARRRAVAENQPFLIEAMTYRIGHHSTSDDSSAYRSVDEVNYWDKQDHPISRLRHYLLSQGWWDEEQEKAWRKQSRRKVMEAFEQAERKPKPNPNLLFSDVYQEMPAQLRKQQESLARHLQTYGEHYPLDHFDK
T1 sequence (P21953 51-392): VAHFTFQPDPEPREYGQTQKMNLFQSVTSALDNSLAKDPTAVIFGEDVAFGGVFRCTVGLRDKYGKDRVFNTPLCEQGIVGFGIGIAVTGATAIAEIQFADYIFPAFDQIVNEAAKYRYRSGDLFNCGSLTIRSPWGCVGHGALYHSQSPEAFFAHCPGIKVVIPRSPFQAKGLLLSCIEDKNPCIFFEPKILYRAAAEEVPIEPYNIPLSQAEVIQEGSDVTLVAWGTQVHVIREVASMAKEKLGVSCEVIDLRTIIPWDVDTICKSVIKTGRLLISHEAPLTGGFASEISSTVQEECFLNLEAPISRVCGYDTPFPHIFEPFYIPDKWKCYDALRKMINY
Put plainly: Overall BCKDC activity assay (reconstituted E1, lip-E2, E3; NADH formation). It counts as biochemical. Particulars: Activity of BCKDC, [+] Phenylbutyrate. On the procedure: To determine the effect of phenylbutyrate on individual BCAA catabolic enzymes, activities of mitochondrial branched chain amino transferase (BCATm) and BCKDC enzymes were measured with and without phenylbutyrate using purified recombinant enzymes. BCATm generates the BCKA products that are elevated in MSUD and are the substrates for BCKDC. BCATm activity was measured at pH 8.0 and 298 K as described in Example 2. Kinetics of the E1 decarboxylase reaction with and without phenylbutyrate were determined in the presence of an artificial electron acceptor 2, 6-dichlorophenolindophenol (DCPIP). The assay mixture contained 100 mM potassium phosphate, pH 7.5, 2.0 mM MgCl2, 0.2 mM thiamin diphosphate (ThDP) and 0.1 mM DCPIP. The rate of decarboxylation at 30° C. was measured by monitoring the reduction of the dye at 600 nm (24, 25). For the overall BCKDC activity assay, the enzymes were exchanged into phosphate buffer (30 mM potassium phosphate, pH 7.5) containing 5 mM DTT using a PD-10 column and the enzyme concentrations were calculated from the absorption maxima at 280 nm. […] The overall reaction was monitored by formation of NADH at 340 nm. The apparent rate constants (kapp) at different substrate concentrations for all of the above assays were determined from the absorption changes at the individual wavelength maximum. […]

“Also recorded” adds a separate entry of the source.

As to `O=C([O-])CCCc1ccccc1.[Na+]` [phenylbutyrate, sodium 4-phenylbutyrate], the “levels of cytosolic isozyme BCATc” value in data set [1] (all of the lymphoblasts but patient 5, 1 mM 48 h) is recorded as “appeared to increase”. In data set [1] (both controls and patients 1 through 3, 1 mM 48 h), the “levels of the mitochondrial isozyme BCATm” value is on record as “slightly elevated”. Also, the “phosphorylation state of E1α” value in data set [1] (lymphoblasts from controls and patients 1, 2 and 3, 1 mM phenylbutyrate 48 h) is “Neither the controls nor patients 1, 2 and 3 responded”. Besides, in data set [1] (lymphoblasts from patients 4 and 5, 1 mM phenylbutyrate 48 h, no apparent change in E1 levels), the “phosphorylation state of E1α” value is “decrease”. Further, the “phosphorylated E1-α subunit of BCKDC in liver vs saline treated mice” value in data set [2] was “significant reduction; also recorded: significantly reduced”. In data set [3] (after oral administration of phenylbutyrate), the “time at which measurable plasma levels are detected” value was 15 min. For the same compound, in data set [3] (oral administration), the “Peak concentrations of phenylbutyrate” value is “approximately 1 mmol/1” and the “time at which peak concentrations are reached” value was 1 h. Also, the elimination half-life in data set [3] (oral phenylbutyrate, estimated) was 48 min. In addition, the “fraction of the drug excreted by the kidneys as the conjugated product PAG” value in data set [3] (within 24 h, most subjects) is listed as 80-100%. Moreover, on BCKDC, the “kcat, KMV” value worked out at 3.767 ± 0.3 s⁻¹.

Values taken from patent US11786494B2, “Methods of modulation of branched chain acids and uses thereof” (Baylor College of Medicine, priority 2009, dated 2023).
